Experimental data from patent US10610520B2, “Heterocyclic compound” (Takeda Pharmaceutical Company Limited, priority 2016, dated 2020).

Target: T1, His-hMAGL (recombinant polyhistidine tagged human MAGL protein) (Homo sapiens, UniProt Q99685)
T1 construct: made in house; host or cells: E. coli BL21(DE3)
T1 sequence (Q99685 1-303): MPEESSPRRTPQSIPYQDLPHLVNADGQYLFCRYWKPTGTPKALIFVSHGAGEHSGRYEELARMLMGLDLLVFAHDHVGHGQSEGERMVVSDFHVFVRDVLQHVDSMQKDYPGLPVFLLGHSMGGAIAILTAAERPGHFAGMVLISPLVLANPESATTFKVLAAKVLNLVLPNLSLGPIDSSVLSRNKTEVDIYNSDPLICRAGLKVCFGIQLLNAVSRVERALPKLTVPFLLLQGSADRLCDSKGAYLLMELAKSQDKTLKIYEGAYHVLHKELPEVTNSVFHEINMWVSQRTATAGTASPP
Test: Measurement of MAGL inhibitory activity (arachidonic acid production from 2-arachidonylglycerol, RapidFire-mass spectrometry)
Format: biochemical
Settings: MAGL inhibitory rate, test compound 10 μM, 60 min preincubation, 2-arachidonylglycerol substrate
Protocol: The His-hMAGL obtained above was diluted with enzyme reaction buffer (10 mM Tris-HCl, pH 7.5, 1 mM EDTA, 0.025 (w/v) % Triton X-100, 0.01% Bovine serum albumin) to a concentration of 7.5 ng/mL. […] Thereafter, to each well was added 5 μL of 150 μM 2-arachidonylglycerol (Tocris Bioscience), and the mixture was incubated at room temperature for 10 min. Then, 10 μL of 2% formic acid (Wako Pure Chemical Industries, Ltd.) was added to stop the reaction. Furthermore, acetonitrile (50 μL) containing 3 μM arachidonic acid-d8 (Cayman Chemical Company) was added and the mixture was stirred.
The amount of arachidonic acid in the obtained enzyme reaction mixture was calculated by measuring by RapidFire-mass spectrometry and correcting by the amount of arachidonic acid-d8. High Throughput online solid phase extraction was performed using RapidFire 300™ system (Agilent Technologies, Inc.). Samples were loaded on SPE C4 cartridge (Agilent Technologies, Inc.) and desalted with 0.2 (v/v) % acetic acid (Wako Pure Chemical Industries, Ltd.) in ultrapure water/acetonitrile (70/30, v/v) at a flow rate of 1.5 mL/min, eluted at a flow rate of 0.5 mL/min with 0.2 (v/v) % acetic acid dissolved in acetonitrile/ultrapure water (90/10, v/v), and injected into the mass spectrometry part. The injection needle was washed with ultrapure water (500 millisecond) and acetonitrile (500 millisecond) to minimize carry-over. […] The RapidFire300 system was controlled by RapidFire UI software version 3.6 (Agilent Technologies, Inc.).
The mass spectrometry of the resultant product was performed using API4000™ triple quadrupole mass spectrometer (AB SCIEX) equipped with an electrospray ion sauce (TurboIon Spray™) in a negative selected reaction monitoring (SRM) mode. The conditions of SRM are shown below. The parameters of the instrument were optimized as follows: capillary temperature 600° C., ion spray voltage −4.5 kV, collision gas 8, curtain gas 15 psi, ion source gas 1 60 psi, ion source gas 2 60 psi. The mass spectrometer was controlled by Analyst™ software version 1.5.1 (AB SCIEX). The peak area integration was analyzed using RapidFire integrator software version 3.6 (Agilent Technologies, Inc.).
MAGL inhibitory rate (%) was calculated according to the following calculation formula. (1-(arachidonic acid production amount of test compound addition group−arachidonic acid production amount of enzyme-free group)÷(arachidonic acid production amount of test compound-free group−arachidonic acid production amount of enzyme-free group))×100

| SMILES | inhibition at 10 µM [%] | % inhibition (10 μM) (10 µM) [%] |
| --- | --- | --- |
| O=C1NC2(CO1)CN(C(=O)c1sc3cc(OC(F)F)ccc3c1Cl)C2 [Example 259, 2-((3-chloro-6-(difluoromethoxy)-1-benzothiophen-2-yl)carbonyl)-7-oxa-2,5-diazaspiro[3.4]octan-6-one] | 101 |  |
| O=C1CCC2(CN(C(=O)c3ccc(-c4ccc5c(c4)OCC5)cc3)C2)N1 [Example 74, 2-(4-(2,3-dihydro-1-benzofuran-6-yl)benzoyl)-2,5-diazaspiro[3.4]octan-6-one] | 95 |  |
| Cc1ccc(CO[C@H]2C[C@@H](C(=O)N3CC4(COC(=O)N4)C3)C2)cc1Cl [Example 356, 2-((cis-3-((3-chloro-4-methylbenzyl)oxy)cyclobutyl)carbonyl)-7-oxa-2,5-diazaspiro[3.4]octan-6-one] | 100 |  |
| Cc1ccc(-c2ccc3c(Cl)c(C(=O)N4CC5(CCC(=O)N5)C4)sc3c2)cc1F [Example 206, 2-((3-chloro-6-(3-fluoro-4-methylphenyl)-1-benzothiophen-2-yl)carbonyl)-2,5-diazaspiro[3.4]octan-6-one] | 96 |  |
| O=C1CCC2(CN(C(=O)c3sc4cc(-c5c(F)cccc5Cl)ccc4c3Cl)C2)N1 [Example 221, 2-((3-chloro-6-(2-chloro-6-fluorophenyl)-1-benzothiophen-2-yl)carbonyl)-2,5-diazaspiro[3.4]octan-6-one] | 100 |  |
| O=C1CCC2(CN(C(=O)c3cc4cc(C(F)(F)F)ccc4s3)C2)N1 [Example 33, 2-((5-(trifluoromethyl)-1-benzothiophen-2-yl)carbonyl)-2,5-diazaspiro[3.4]octan-6-one] | 85 |  |
| O=C1NC2(CCN(C(=O)c3sc4cc(Cl)cc(Cl)c4c3Cl)C2)CO1 (centres unmarked) [Example 325, 7-((3,4,6-trichloro-1-benzothiophen-2-yl)carbonyl)-3-oxa-1,7-diazaspiro[4.4]nonan-2-one] | 80 |  |
| O=C1NC2(CO1)CN(C(=O)c1sc3c(F)ccc(OC(F)(F)F)c3c1Cl)C2 [Example 301, 2-((3-chloro-7-fluoro-4-(trifluoromethoxy)-1-benzothiophen-2-yl)carbonyl)-7-oxa-2,5-diazaspiro[3.4]octan-6-one] | 100 |  |
| O=C1CCC2(CN(C(=O)c3ccc(-c4c(F)cc(F)cc4F)cc3)C2)N1 [Example 77, 2-((2′,4′,6′-trifluorobiphenyl-4-yl)carbonyl)-2,5-diazaspiro[3.4]octan-6-one] | 88 |  |
| COc1ccc(Cl)c(-c2ccc(C(=O)N3CC4(CCC(=O)N4)C3)cc2)c1 [Example 82, 2-((2′-chloro-5′-methoxybiphenyl-4-yl)carbonyl)-2,5-diazaspiro[3.4]octan-6-one] | 93 |  |
| O=C1CCC2(CN(C(=O)c3sc4ccccc4c3Cl)C2)N1 [Example 134, 2-((3-chloro-1-benzothiophen-2-yl)carbonyl)-2,5-diazaspiro[3.4]octan-6-one] | 98 |  |
| O=C1CCC2(CN(C(=O)c3ccc(-c4ccc(Cl)cc4)cc3)C2)N1 [Example 87, 2-((4′-chlorobiphenyl-4-yl)carbonyl)-2,5-diazaspiro[3.4]octan-6-one] | 98 |  |
| O=C1CCC2(CN(C(=O)c3sc4ccc(C(F)(F)F)cc4c3Cl)C2)N1 [Example 256, 2-((3-chloro-5-(trifluoromethyl)-1-benzothiophen-2-yl)carbonyl)-2,5-diazaspiro[3.4]octan-6-one] | 99 |  |
| O=C1CCC2(CN(C(=O)N3CCC(Cc4cc(C(F)(F)F)cc(C(F)(F)F)c4)CC3)C2)N1 [Example 108, 2-((4-(3,5-bis(trifluoromethyl)benzyl)piperidin-1-yl)carbonyl)-2,5-diazaspiro[3.4]octan-6-one] | 104 |  |
| Cc1ccc(-c2ccc3c(Cl)c(C(=O)N4CC5(CCC(=O)N5)C4)sc3c2)cc1 [Example 184, 2-((3-chloro-6-(4-methylphenyl)-1-benzothiophen-2-yl)carbonyl)-2,5-diazaspiro[3.4]octan-6-one] | 99 |  |
| O=C1CCC2(CN(C(=O)c3sc4cc(C(F)(F)F)ccc4c3Cl)C2)N1 [Example 20, 2-((3-chloro-6-(trifluoromethyl)-1-benzothiophen-2-yl)carbonyl)-2,5-diazaspiro[3.4]octan-6-one] | 104 |  |
| CC(C)c1ccc(-c2ccc3c(Cl)c(C(=O)N4CC5(CCC(=O)N5)C4)sc3c2)cc1 [Example 187, 2-((3-chloro-6-(4-isopropylphenyl)-1-benzothiophen-2-yl)carbonyl)-2,5-diazaspiro[3.4]octan-6-one] | 94 |  |
| O=C1NC2(CCN(C(=O)c3sc4cc(OC(F)(F)F)ccc4c3Cl)C2)CO1 (centres unmarked) [Example 323, 7-((3-chloro-6-(trifluoromethoxy)-1-benzothiophen-2-yl)carbonyl)-3-oxa-1,7-diazaspiro[4.4]nonan-2-one] |  | 101 |
| Cc1ccc(-c2ccc(C(=O)N3CC4(CCC(=O)N4)C3)cc2)c(Cl)c1 [Example 83, 2-((2′-chloro-4′-methylbiphenyl-4-yl)carbonyl)-2,5-diazaspiro[3.4]octan-6-one] | 96 |  |
| O=C1CCC2(CN(C(=O)c3sc4cc(-c5cc(F)cc(F)c5)ccc4c3Cl)C2)N1 [Example 214, 2-((3-chloro-6-(3,5-difluorophenyl)-1-benzothiophen-2-yl)carbonyl)-2,5-diazaspiro[3.4]octan-6-one] | 99 |  |
| O=C1NC2(CCN(C(=O)c3sc4cc(F)cc(Cl)c4c3Cl)C2)CO1 (centres unmarked) [Example 332, 7-((3,4-dichloro-6-fluoro-1-benzothiophen-2-yl)carbonyl)-3-oxa-1,7-diazaspiro[4.4]nonan-2-one] | 100 |  |
| O=C1NC2(CO1)CN(C(=O)c1ccc(-c3cccc(C4(C(F)(F)F)CC4)c3)c(F)c1)C2 [Example 335, 2-((2-fluoro-3′-(1-(trifluoromethyl)cyclopropyl)biphenyl-4-yl)carbonyl)-7-oxa-2,5-diazaspiro[3.4]octan-6-one] | 100 |  |
| O=C1CCC2(CN(C(=O)c3sc4cc(-c5ccccc5Cl)ccc4c3Cl)C2)N1 [Example 192, 2-((3-chloro-6-(2-chlorophenyl)-1-benzothiophen-2-yl)carbonyl)-2,5-diazaspiro[3.4]octan-6-one] | 100 |  |
| O=C1NC2(CO1)CN(C(=O)c1sc3cc(C(F)(F)F)cc(OC(F)F)c3c1Cl)C2 [Example 305, 2-((3-chloro-4-(difluoromethoxy)-6-(trifluoromethyl)-1-benzothiophen-2-yl)carbonyl)-7-oxa-2,5-diazaspiro[3.4]octan-6-one] | 100 |  |
| O=C1CCC2(CN(C(=O)c3ccc(-c4ccc(OC(F)(F)F)cc4F)cc3)C2)N1 [Example 59, 2-((2′-fluoro-4′-(trifluoromethoxy)biphenyl-4-yl)carbonyl)-2,5-diazaspiro[3.4]octan-6-one] | 97 |  |
| O=C1COCC2(CN(C(=O)c3sc4cc(C(F)(F)F)ccc4c3Cl)C2)N1 [Example 242, 2-((3-chloro-6-(trifluoromethyl)-1-benzothiophen-2-yl)carbonyl)-8-oxa-2,5-diazaspiro[3.5]nonan-6-one] | 99 |  |
| O=C1CCC2(CN(C(=O)N3CC(COc4ccc(C(F)(F)F)cc4F)C3)C2)N1 [Example 8, 2-((3-((2-fluoro-4-(trifluoromethyl)phenoxy)methyl)azetidin-1-yl)carbonyl)-2,5-diazaspiro[3.4]octan-6-one] | 100 |  |
| O=C1CCC2(CN(C(=O)c3ccc(-c4ccccc4)cc3F)C2)N1 [Example 31, 2-((3-fluorobiphenyl-4-yl)carbonyl)-2,5-diazaspiro[3.4]octan-6-one] | 84 |  |
| O=C1CCC2(CN(C(=O)c3sc4cc(-c5ccc(C(F)(F)F)cc5)ccc4c3Cl)C2)N1 [Example 197, 2-((3-chloro-6-(4-(trifluoromethyl)phenyl)-1-benzothiophen-2-yl)carbonyl)-2,5-diazaspiro[3.4]octan-6-one] | 90 |  |
